Experimental data taken from patent US9050344B2, “Therapeutic compounds” (Gilead Sciences, Inc., priority 2013, dated 2015).

Columns and labels:
HIV-IIIb = experiment: Test A: Antiviral Assay in MT4 Cells; type: cell-based, HIV-1; settings: Human immunodeficiency virus 1, IIIB, MT4, 120 h, read-out: % inhibition at 3 μM
Method: Test A: Antiviral Assay in MT4 Cells
For the antiviral assay, 40 μL of 1× test concentration of 3-fold serially diluted compound in culture medium with 10% FBS was added to each well of a 384-well plate (10 concentrations) in quadruplicate. MT-4 cells were next mixed with HIV-IIIb at an m.o.i of 0.003 for 1 hour, after which time 35 μL of virus/cell mixture (2000 cells) was immediately added to each well containing 40 μL of diluted compound. The plates were then incubated at 37° C. for 5 days. After 5 days of incubation, 25 μl of 2× concentrated CellTiter-Glo™ Reagent (catalog #G7571, Promega Biosciences, Inc., Madison, Wis.) was added to each well containing MT-4 cells. Cell lysis was carried out by incubating at room temperature for 10 min and then chemiluminescence was read.

[1] = Test B: Cytotoxicity Assay (protocol of Test A, uninfected cells); type: cell-based; settings: human, uninfected MT-4 cells, CellTiter-Glo
Method: Test B: Cytotoxicity Assay Compound cytotoxicity and the corresponding CC50 values was determined using the same protocol as described in the antiviral assay (Test A) except that uninfected cells were used.

SMILES | inhibition at 3 µM (HIV-IIIb) | CC50 at 5 days [1]
Cn1nc(NS(C)(=O)=O)c2c(Cl)ccc(-c3cc(N)c(Cl)nc3[C@H](Cc3cc(F)cc(F)c3)NC(=O)Cn3nc(C(F)(F)F)c4c3C(F)(F)[C@@H]3C[C@H]43)c21 [Compound 54, N—((S)-1-(5-amino-6-chloro-3-(4-chloro-1-methyl-3-(methylsulfonamido)-1H-indazol-7-yl)pyridin-2-yl)-2-(3,5-difluorophenyl)ethyl)-2-((3bS,4aR)-5,5-difluoro-3-(trifluoromethyl)-3b,4,4a,5-tetrahydro-1H-cyclopropa[3,4]cyclopenta[1,2-c]pyrazol-1-yl)acetamide] | 92% | 12.1 µM
Cc1c(-c2cc(NC(=O)C(F)(F)F)cnc2[C@H](Cc2cc(F)cc(F)c2)NC(=O)Cn2nc(C(F)(F)F)c3c2C(F)(F)[C@@H]2C[C@H]32)ccc2n[nH]c(=O)n12 [Compound 40, N-(6-((S)-1-(2-((3bS,4aR)-5,5-difluoro-3-(trifluoromethyl)-3b,4,4a,5-tetrahydro-1H-cyclopropa[3,4]cyclopenta[1,2-c]pyrazol-1-yl)acetamido)-2-(3,5-difluorophenyl)ethyl)-5-(5-methyl-3-oxo-2,3-dihydro-[1,2,4]triazolo[4,3-a]pyridin-6-yl)pyridin-3-yl)-2,2,2-trifluoroacetamide] | 96% | 24.1 µM
Cc1c(-c2cc(NS(C)(=O)=O)cnc2[C@H](Cc2cc(F)cc(F)c2)NC(=O)Cn2nc(C(F)(F)F)c3c2C(F)(F)[C@@H]2C[C@H]32)ccc2n[nH]c(=O)n12 [Compound 41E, 2-((3bS,4aR)-5,5-difluoro-3-(trifluoromethyl)-3b,4,4a,5-tetrahydro-1H-cyclopropa[3,4]cyclopenta[1,2-c]pyrazol-1-yl)-N—((S)-2-(3,5-difluorophenyl)-1-(3-(5-methyl-3-oxo-2,3-dihydro-[1,2,4]triazolo[4,3-a]pyridin-6-yl)-5-(methylsulfonamido)pyridin-2-yl)ethyl)acetamide] | 91% | > 50 µM
Cn1nc(NS(C)(=O)=O)c2c(Cl)ccc(-c3nc(N)cnc3C(Cc3cc(F)cc(F)c3)NC(=O)Cn3nc(C(F)F)c4c3C(F)(F)[C@@H]3C[C@H]43)c21 (stereo partly drawn) [Compound 59D, N-(1-(5-amino-3-(4-chloro-1-methyl-3-(methylsulfonamido)-1H-indazol-7-yl)pyrazin-2-yl)-2-(3,5-difluorophenyl)ethyl)-2-((3bS,4aR)-3-(difluoromethyl)-5,5-difluoro-3b,4,4a,5-tetrahydro-1H-cyclopropa[3,4]cyclopenta[1,2-c]pyrazol-1-yl)acetamide] | 85% | > 46.8 µM
Cn1nc(NS(C)(=O)=O)c2cccc(-c3cnc(N4CC5(COC5)C4)nc3[C@H](Cc3cc(F)cc(F)c3)NC(=O)Cn3nc(C(F)(F)F)c4c3C(F)(F)[C@@H]3C[C@H]43)c21 [Compound 37, 2-((3bS,4aR)-5,5-difluoro-3-(trifluoromethyl)-3b,4,4a,5-tetrahydro-1H-cyclopropa[3,4]cyclopenta[1,2-c]pyrazol-1-yl)-N—((S)-2-(3,5-difluorophenyl)-1-(5-(1-methyl-3-(methylsulfonamido)-1H-indazol-7-yl)-2-(2-oxa-6-azaspiro[3.3]heptan-6-yl)pyrimidin-4-yl)ethyl)acetamide] | 95% | 34 µM
CSc1cnc([C@H](Cc2cc(F)cc(F)c2)NC(=O)Cn2nc(C(F)F)c3c2C(F)(F)[C@@H]2C[C@H]32)c(-c2cccc3c(NS(C)(=O)=O)nn(C)c23)n1 [Compound 55G, 2-((3bS,4aR)-3-(difluoromethyl)-5,5-difluoro-3b,4,4a,5-tetrahydro-1H-cyclopropa[3,4]cyclopenta[1,2-c]pyrazol-1-yl)-N—((S)-2-(3,5-difluorophenyl)-1-(3-(1-methyl-3-(methylsulfonamido)-1H-indazol-7-yl)-5-(methylthio)pyrazin-2-yl)ethyl)acetamide] | 107% | 22.1 µM
Cn1nc(NS(C)(=O)=O)c2cccc(-c3cnc(N4CC(C)(O)C4)nc3[C@H](Cc3cc(F)cc(F)c3)NC(=O)Cn3nc(C(F)(F)F)c4c3C(F)(F)[C@@H]3C[C@H]43)c21 [Compound 36C, 2-((3bS,4aR)-5,5-difluoro-3-(trifluoromethyl)-3b,4,4a,5-tetrahydro-1H-cyclopropa[3,4]cyclopenta[1,2-c]pyrazol-1-yl)-N—((S)-2-(3,5-difluorophenyl)-1-(2-(3-hydroxy-3-methylazetidin-1-yl)-5-(1-methyl-3-(methylsulfonamido)-1H-indazol-7-yl)pyrimidin-4-yl)ethyl)acetamide] | 94% | 32.2 µM
NC(=O)c1cc(-c2cc(N3C(=O)c4ccccc4C3=O)cnc2[C@H](Cc2cc(F)cc(F)c2)NC(=O)Cn2nc(C(F)(F)F)c3c2C(F)(F)[C@@H]2C[C@H]32)ccc1F [Compound 30K, 5-(2-((S)-1-(2-((3bS,4aR)-5,5-difluoro-3-(trifluoromethyl)-3b,4,4a,5-tetrahydro-1H-cyclopropa[3,4]cyclopenta[1,2-c]pyrazol-1-yl)acetamido)-2-(3,5-difluorophenyl)ethyl)-5-(1,3-dioxoisoindolin-2-yl)pyridin-3-yl)-2-fluorobenzamide] | 48% | > 53.2 µM
Cc1nc([C@H](Cc2cc(F)cc(F)c2)NC(=O)Cn2nc(C(F)(F)F)c3c2C(F)(F)[C@@H]2C[C@H]32)c(-c2cccc3c(NS(C)(=O)=O)nn(C)c23)cc1N [Compound 45, N—((S)-1-(5-amino-6-methyl-3-(1-methyl-3-(methylsulfonamido)-1H-indazol-7-yl)pyridin-2-yl)-2-(3,5-difluorophenyl)ethyl)-2-((3bS,4aR)-5,5-difluoro-3-(trifluoromethyl)-3b,4,4a,5-tetrahydro-1H-cyclopropa[3,4]cyclopenta[1,2-c]pyrazol-1-yl)acetamide] | 110% | 21.5 µM
Cn1nc(NS(C)(=O)=O)c2c(Cl)ccc(-c3cc(N)cnc3[C@H](Cc3cc(F)cc(F)c3)NC(=O)Cn3nc(C(F)(F)F)c4c3C(F)(F)[C@@H]3C[C@H]43)c21 [Compound 52, N—((S)-1-(5-amino-3-(4-chloro-1-methyl-3-(methylsulfonamido)-1H-indazol-7-yl)pyridin-2-yl)-2-(3,5-difluorophenyl)ethyl)-2-((3bS,4aR)-5,5-difluoro-3-(trifluoromethyl)-3b,4,4a,5-tetrahydro-1H-cyclopropa[3,4]cyclopenta[1,2-c]pyrazol-1-yl)acetamide] | 104% | 21.5 µM
Cn1nc(NS(C)(=O)=O)c2cccc(-c3ccc(N4CC(N)CC4=O)nc3[C@H](Cc3cc(F)cc(F)c3)NC(=O)Cn3nc(C(F)(F)F)c4c3C(F)(F)[C@@H]3C[C@H]43)c21 (stereo partly drawn) [Compound 43B, N-((1S)-1-(6-(4-amino-2-oxopyrrolidin-1-yl)-3-(1-methyl-3-(methylsulfonamido)-1H-indazol-7-yl)pyridin-2-yl)-2-(3,5-difluorophenyl)ethyl)-2-((3bS,4aR)-5,5-difluoro-3-(trifluoromethyl)-3b,4,4a,5-tetrahydro-1H-cyclopropa[3,4]cyclopenta[1,2-c]pyrazol-1-yl)acetamide] | 83% | 16.9 µM
CN1CCN(c2ccc(-c3ccc(Cl)c4c(NS(C)(=O)=O)nn(C)c34)c([C@H](Cc3cc(F)cc(F)c3)NC(=O)Cn3nc(C(F)(F)F)c4c3C(F)(F)[C@@H]3C[C@H]43)n2)CC1 [Compound 60C, N—((S)-1-(3-(4-chloro-1-methyl-3-(methylsulfonamido)-1H-indazol-7-yl)-6-(4-methylpiperazin-1-yl)pyridin-2-yl)-2-(3,5-difluorophenyl)ethyl)-2-((3bS,4aR)-5,5-difluoro-3-(trifluoromethyl)-3b,4,4a,5-tetrahydro-1H-cyclopropa[3,4]cyclopenta[1,2-c]pyrazol-1-yl)acetamide] | 90% | 9.11 µM
Cc1c(-c2cc(N)cnc2[C@H](Cc2cc(F)cc(F)c2)NC(=O)Cn2nc(C(F)(F)F)c3c2C(F)(F)[C@@H]2C[C@H]32)ccc2n[nH]c(=O)n12 [Compound 34, N—((S)-1-(5-amino-3-(5-methyl-3-oxo-2,3-dihydro-[1,2,4]triazolo[4,3-a]pyridin-6-yl)pyridin-2-yl)-2-(3,5-difluorophenyl)ethyl)-2-((3bS,4aR)-5,5-difluoro-3-(trifluoromethyl)-3b,4,4a,5-tetrahydro-1H-cyclopropa[3,4]cyclopenta[1,2-c]pyrazol-1-yl)acetamide] | 89% | 22.4 µM
NC(=O)c1cc(-c2cc(N3C(=O)c4ccccc4C3=O)cnc2[C@H](Cc2cc(F)cc(F)c2)NC(=O)Cn2nc(C(F)F)c3c2C(F)(F)CCC3(F)F)ccc1F [Compound 32, (S)-5-(2-(1-(2-(3-(difluoromethyl)-4,4,7,7-tetrafluoro-4,5,6,7-tetrahydro-1H-indazol-1-yl)acetamido)-2-(3,5-difluorophenyl)ethyl)-5-(1,3-dioxoisoindolin-2-yl)pyridin-3-yl)-2-fluorobenzamide] | 37% | > 53.2 µM
CC(=O)Nc1cnc([C@H](Cc2cc(F)cc(F)c2)NC(=O)Cn2nc(C(F)(F)F)c3c2C(F)(F)[C@@H]2C[C@H]32)c(-c2cccc3c(NS(C)(=O)=O)nn(C)c23)c1 [Compound 39, N—((S)-1-(5-acetamido-3-(1-methyl-3-(methylsulfonamido)-1H-indazol-7-yl)pyridin-2-yl)-2-(3,5-difluorophenyl)ethyl)-2-((3bS,4aR)-5,5-difluoro-3-(trifluoromethyl)-3b,4,4a,5-tetrahydro-1H-cyclopropa[3,4]cyclopenta[1,2-c]pyrazol-1-yl)acetamide] | 92% | 29.6 µM
